The record followed here is PMC2606048 (Bioorganic & medicinal chemistry letters, 2008).

Where two headings read alike, the source gives them in different places.

What is called IC50 is the point on the concentration scale where inhibition reaches its midpoint.

In assay [1] the test system is L1210, FM3A, Molt/4 and CEM cells. Briefly: Antiproliferative activity summarised over the panel of four cancer cell lines. It counts as cell-based, murine and human. Particulars: for IC50: read-out: IC50 (span over the four cell lines); for Antiproliferative activity (in words): four cell lines.
In assay [2] the test system is murine leukemia (L1210) cells. Put plainly: Inhibition of proliferation of murine leukemia. Type of assay: cell-based.
Assay [3] relates to human T-lymphocyte Molt4/C8 cells. Put plainly: Inhibition of proliferation of human T-lymphocyte Molt4/C8 cells. Type of assay: cell-based.
Assay [4] relates to human T-lymphocyte CEM cells. Briefly: Inhibition of proliferation of human T-lymphocyte CEM cells. Type of assay: cell-based.
The subject of another assay is tubulin. Briefly: Inhibition of tubulin polymerization. Particulars: read-out: Tubulin assembly IC50 ± SD; Tubulin was at 10 μM.
For assay [5], the system named is K562 (human chronic myelogenous leukemia) cells. Put plainly: Flow cytometric analysis of cell cycle distribution in K562 cells. Particulars: 24 h, compound at its 24 h IC50, propidium iodide. Type of assay: cell-based. (In general: A flow cytometer gives signals particle by particle.)
The test system is the same in assay [6]. Briefly: K562 cell growth inhibition after 24 h. Type of assay: cell-based. Particulars: read-out: IC50 determined for 24 h of growth.
In assay [7] the test system is murine mammary carcinoma (FM3A) cells. Briefly: Inhibition of proliferation of murine mammary carcinoma. It counts as cell-based.

Take `COc1cc(C(=O)c2c(N)sc3c2CCN(C)C3)cc(OC)c1OC` [Compound 4a]: the IC50 in assay [1] was more than 10 µM. `COc1ccc(/C=C\c2cc(OC)c(OC)c(OC)c2)cc1O` [CA-4 (1), combretastatin A-4, reference compound]: the IC50 in assay [2] (Mus musculus, L1210, read-out: IC50 L1210) was 0.0028 ± 0.0011 µM. `CCNC(=S)N1CCc2c(sc(N)c2C(=O)c2cc(OC)c(OC)c(OC)c2)C1` [Compound 4t]: the IC50 in assay [1] was in the range of 4.8 to 6.9 µM. With “2-amino-3-(3,4,5-trimethoxybenzoyl)-6-methoxycarbonyl-4,5,6,7-tetrahydrothieno[b]pyridine [Compound 4f]”, the “fold more potent than 4g” value stood at 6 fold in assay [3] (Molt4 cells), 5 fold in assay [4] and 4 fold in assay [2] (L1210 cells). The half-maximal inhibitory concentration (IC50) in the assay on tubulin came to 0.6 ± 0.02 µM; in assay [6] (K562 cells, 24 h), 0.07 µM. In addition, the “Effect on cell cycle distribution” value in assay [5] is listed as “marked increase in the percentage of cells blocked in the G2-M phase”. As for `CCCOC(=O)N1CCc2c(sc(N)c2C(=O)c2cc(OC)c(OC)c(OC)c2)C1` [Compound 4h], the “fold reduction in activity on lengthening the alkyl chain (vs 4g)” value in assay [3] (Molt-4 cells) was 1.5 fold; in assay [4] it was 3 fold; in assay [2] (L1210 cells), 10 fold; in assay [7], 25 fold.

With `CCN1CCc2c(sc(N)c2C(=O)c2cc(OC)c(OC)c(OC)c2)C1` [Compound 4b], in assay [1], the IC50 fell in the range of 1.7 to 2.1 µM. For the compound `CCOC(=O)N1CCc2c(sc(N)c2C(=O)c2cc(OC)c(OC)c(OC)c2)C1` [Compound 4g], the IC50 is 0.057 to 0.44 µM in assay [1] and 0.08 µM in assay [6] (Homo sapiens, K562, 24 h). For the same compound, the “Effect on cell cycle distribution” value in assay [5] is recorded as “marked increase in the percentage of cells blocked in the G2-M phase”. Consider `COc1cc(C(=O)c2c(N)sc3cnccc23)cc(OC)c1OC` [Compound 5, 2-amino-3-(3′,4′,5′-trim-ethoxybenzoyl)thieno[2,3-c]pyridine], for which the “fold less potent than 2a” value in assay [4] is 13 fold. For the same compound, the IC50 in the assay on tubulin stood at 5.4 ± 0.4 µM; in assay [6] (Homo sapiens, K562, 24 h), 0.5 µM. The “Effect on cell cycle distribution” value in assay [5] was “marked increase in the percentage of cells blocked in the G2-M phase”. Consider `CCCN1CCc2c(sc(N)c2C(=O)c2cc(OC)c(OC)c(OC)c2)C1` [Compound 4c], for which the IC50 in assay [1] was more than 10 µM. Consider `COc1cc(C(=O)c2c(N)sc3c2CCN(C(C)=O)C3)cc(OC)c1OC` [Compound 4e], for which, in assay [1], the IC50 is 1.1 to 3.9 µM. Regarding `COc1cc(C(=O)c2c(N)sc3ccccc23)cc(OC)c1OC` [Compound 2a, reference compound], the IC50 in the assay with tubulin was determined as 1.9 ± 0.1 µM.

As to `COc1cc(C(=O)c2c(N)sc3c2CCN(C(=S)NC(C)C)C3)cc(OC)c1OC` [Compound 4u], the “Antiproliferative activity (in words)” value in assay [1] is “inactive”.

Regarding `COc1cc(C(=O)c2c(N)sc3c2CCN(C(=S)NC2CCCCC2)C3)cc(OC)c1OC` [Compound 4w], the IC50 in assay [1] was 0.73 to 1.1 µM. Consider `COc1cc(C(=O)c2c(N)sc3c2CCN(C(=O)NC(C)C)C3)cc(OC)c1OC` [Compound 4m], for which, in assay [1], the “Antiproliferative activity (in words)” value was “inactive”.

For `COc1cc(C(=O)c2c(N)sc3c2CCN(Cc2ccccc2)C3)cc(OC)c1OC` [Compound 4d], the IC50 in assay [1] was more than 10 µM. For `CNC(=S)N1CCc2c(sc(N)c2C(=O)c2cc(OC)c(OC)c(OC)c2)C1` [Compound 4s], in assay [1], the IC50 was in the range of 1.6 to 4.9 µM.
